Data: PubChem BioAssay AID248 (DTP/NCI, 2004)
Several values for one entry are separate records, joined by “and”; a condition that tells them apart may be missing. Identical values can stand only once. Toxic doses and inconclusive results are not listed.

Test system: L1210 leukemia ip in BDF1 mice, survival T/C
Test: NCI In Vivo Anticancer Drug Screen. Data for tumor model L1210 Leukemia (intraperitoneal) in B6D2F1 (BDF1) mice
Details: endpoint: mean survival time, higher = longer survival
How it was run: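 Transplanted-tumor mice were given test agent; controls received vehicle only. Survival readings from the two groups were divided (treated over control).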

[1] = dose: 100.0 mg/kg/injection, schedule: Q01DX001 (ip), vehicle: saline
[2] = dose: 200.0 mg/kg/injection, schedule: Q01DX001 (ip), vehicle: saline
[3] = dose: 400.0 mg/kg/injection, schedule: Q01DX001 (ip), vehicle: saline
[4] = dose: 100.0 mg/kg/injection, schedule: Q01DX009 (ip), vehicle: Klucel (hydroxypropylcellulose) (HPC)
[5] = dose: 200.0 mg/kg/injection, schedule: Q01DX009 (ip), vehicle: Klucel (hydroxypropylcellulose) (HPC)
[6] = dose: 400.0 mg/kg/injection, schedule: Q01DX009 (ip), vehicle: Klucel (hydroxypropylcellulose) (HPC)
[7] = dose: 100.0 mg/kg/injection, schedule: Q01DX001 (ip), vehicle: Klucel (hydroxypropylcellulose) (HPC)
[8] = dose: 200.0 mg/kg/injection, schedule: Q01DX001 (ip), vehicle: Klucel (hydroxypropylcellulose) (HPC)
[9] = dose: 400.0 mg/kg/injection, schedule: Q01DX001 (ip), vehicle: Klucel (hydroxypropylcellulose) (HPC)
[10] = dose: 50.0 mg/kg/injection, schedule: Q04DX002 (ip), vehicle: Klucel (hydroxypropylcellulose) (HPC)
[11] = dose: 50.0 mg/kg/injection, schedule: Q01DX009 (ip), vehicle: saline
[12] = dose: 200.0 mg/kg/injection, schedule: Q04DX003 (ip), vehicle: saline with Tween-80
[13] = dose: 100.0 mg/kg/injection, schedule: Q04DX003 (ip), vehicle: saline with Tween-80
[14] = dose: 400.0 mg/kg/injection, schedule: Q04DX003 (ip), vehicle: saline with Tween-80
[15] = dose: 100.0 mg/kg/injection, schedule: Q04DX002 (ip), vehicle: Klucel (hydroxypropylcellulose) (HPC)
[16] = dose: 200.0 mg/kg/injection, schedule: Q04DX002 (ip), vehicle: Klucel (hydroxypropylcellulose) (HPC)
[17] = dose: 400.0 mg/kg/injection, schedule: Q04DX002 (ip), vehicle: Klucel (hydroxypropylcellulose) (HPC)

## O=S1(=O)c2ccccc2C(=NO)c2ccccc21
dose: 75.0 mg/kg/injection, schedule: Q01DX009 (ip), vehicle: other
  T/C: 98 % of control
[1]
  T/C: 97 % of control
dose: 150.0 mg/kg/injection, schedule: Q01DX009 (ip), vehicle: other
  T/C: 98 % of control
[2]
  T/C: 94 % of control
dose: 300.0 mg/kg/injection, schedule: Q01DX009 (ip), vehicle: other
  T/C: 93 % of control
[3]
  T/C: 97 % of control

## Cc1cc(C)c(NC(=O)c2ccco2)cc1C
[4]
  T/C: 105 % of control
[5]
  T/C: 92 % of control
[6]
  T/C: 105 % of control

## c1ccc2cc(C3OCC4(CCC4)CO3)ccc2c1
[7]
  T/C: 94 % of control
[8]
  T/C: 104 % of control
[9]
  T/C: 104 % of control

## Cc1ccc(C(=O)C=Nc2ccccc2[N+](=O)[O-])cc1
dose: 12.5 mg/kg/injection, schedule: Q04DX002 (ip), vehicle: Klucel (hydroxypropylcellulose) (HPC)
  T/C: 105 % of control
dose: 25.0 mg/kg/injection, schedule: Q04DX002 (ip), vehicle: Klucel (hydroxypropylcellulose) (HPC)
  T/C: 108 % of control
[10]
  T/C: 123 % of control

## COc1cc([C@@H]2c3cc4c(cc3[C@H](SC(=N)N)[C@H]3COC(=O)[C@H]23)OCO4)cc(OC)c1OC
dose: 5.0 mg/kg/injection, schedule: Q01DX Z (ip), vehicle: carboxymethylcellulose (CMC)
  T/C: 98 % of control
dose: 6.0 mg/kg/injection, schedule: Q01DX Z (ip), vehicle: carboxymethylcellulose (CMC)
  T/C: 109 % of control
dose: 10.0 mg/kg/injection, schedule: Q01DX Z (ip), vehicle: carboxymethylcellulose (CMC)
  T/C: 103 % of control
dose: 12.0 mg/kg/injection, schedule: Q01DX Z (ip), vehicle: carboxymethylcellulose (CMC)
  T/C: 112 % of control
dose: 18.0 mg/kg/injection, schedule: Q01DX Z (ip), vehicle: carboxymethylcellulose (CMC)
  T/C: 108 % of control
dose: 18.0 mg/kg/injection, schedule: Q01DX Z (ip), vehicle: methylcellulose (MC)
  T/C: 103 % of control
dose: 24.0 mg/kg/injection, schedule: Q01DX Z (ip), vehicle: carboxymethylcellulose (CMC)
  T/C: 112 % of control
dose: 25.0 mg/kg/injection, schedule: Q01DX009 (ip), vehicle: saline
  T/C: 118 % of control
dose: 27.0 mg/kg/injection, schedule: Q01DX Z (ip), vehicle: carboxymethylcellulose (CMC)
  T/C: 100 % of control
dose: 37.5 mg/kg/injection, schedule: Q04DX003 (ip), vehicle: saline
  T/C: 104 % of control
dose: 48.0 mg/kg/injection, schedule: Q01DX Z (ip), vehicle: carboxymethylcellulose (CMC)
  T/C: 109 % of control
[11]
  T/C: 88 % of control
dose: 60.0 mg/kg/injection, schedule: Q01DX Z (ip), vehicle: methylcellulose (MC)
  T/C: 109 % of control
dose: 75.0 mg/kg/injection, schedule: Q04DX003 (ip), vehicle: saline
  T/C: 105 % of control
dose: 150.0 mg/kg/injection, schedule: Q04DX003 (ip), vehicle: saline
  T/C: 89 % of control

## COc1ccc(CC[n+]2cccc(C#N)c2)cc1OC
dose: 75.0 mg/kg/injection, schedule: Q01DX001 (ip), vehicle: carboxymethylcellulose (CMC)
  T/C: 105 % of control
dose: 150.0 mg/kg/injection, schedule: Q01DX001 (ip), vehicle: carboxymethylcellulose (CMC)
  T/C: 100 % of control

## CN(C)c1ccc(/C=N/NC(N)=S)nc1
dose: 5.0 mg/kg/injection, schedule: Q03HX032 (ip), vehicle: saline with Tween-80
  T/C: 116 % of control
dose: 12.0 mg/kg/injection, schedule: Q03HX032 (ip), vehicle: saline with Tween-80
  T/C: 158 % of control
dose: 18.0 mg/kg/injection, schedule: Q03HX032 (ip), vehicle: saline with Tween-80
  T/C: 188 % of control and 320 % of control
dose: 19.0 mg/kg/injection, schedule: Q04DX003 (ip), vehicle: saline with Tween-80
  T/C: 110 % of control
dose: 44.0 mg/kg/injection, schedule: Q04DX003 (ip), vehicle: saline with Tween-80
  T/C: 162 % of control
dose: 67.0 mg/kg/injection, schedule: Q04DX003 (ip), vehicle: saline with Tween-80
  T/C: 118 % of control
[12]
  T/C: 113 % of control

## C/C=C(/C(=O)c1ccc(-c2ccccc2)cc1)c1ccccc1
dose: 100.0 mg/kg/injection, schedule: Q01DX009 (ip), vehicle: saline with Tween-80
  T/C: 105 % of control
[13]
  T/C: 95 % of control
dose: 200.0 mg/kg/injection, schedule: Q01DX009 (ip), vehicle: saline with Tween-80
  T/C: 94 % of control
[12]
  T/C: 89 % of control
dose: 400.0 mg/kg/injection, schedule: Q01DX009 (ip), vehicle: saline with Tween-80
  T/C: 90 % of control
[14]
  T/C: 94 % of control

## O=C(CCN1CCCCCCC1)c1cccc([N+](=O)[O-])c1
dose: 25.0 mg/kg/injection, schedule: Q04DX003 (ip), vehicle: saline
  T/C: 97 % of control
[11]
  T/C: 101 % of control
dose: 50.0 mg/kg/injection, schedule: Q04DX003 (ip), vehicle: saline
  T/C: 104 % of control
dose: 100.0 mg/kg/injection, schedule: Q01DX009 (ip), vehicle: saline
  T/C: 91 % of control
dose: 100.0 mg/kg/injection, schedule: Q04DX003 (ip), vehicle: saline
  T/C: 97 % of control and 105 % of control

## NC(CS(=O)c1ccc([N+](=O)[O-])cc1Cl)C(=O)O (stereo unspecified)
[13]
  T/C: 103 % of control
[12]
  T/C: 95 % of control
[14]
  T/C: 101 % of control

## COC(=O)C1OC1c1cc(Cl)cc(Cl)c1OC (stereo unspecified)
[1]
  T/C: 100 % of control
[2]
  T/C: 106 % of control
[3]
  T/C: 101 % of control

## Nc1ccc(N=Nc2ccccc2)cc1
[10]
  T/C: 105 % of control
[15]
  T/C: 105 % of control
[16]
  T/C: 97 % of control and 115 % of control
[17]
  T/C: 112 % of control

## CC(OC(=O)c1ccc([N+](=O)[O-])cc1)C(C)OC(=O)c1ccc([N+](=O)[O-])cc1 (stereo unspecified)
[7]
  T/C: 92 % of control
[8]
  T/C: 97 % of control
[9]
  T/C: 97 % of control

## O=C1CN=C(c2ccccn2)c2cc(Br)ccc2N1
dose: 3.1 mg/kg/injection, schedule: Q03HX024 (ip), vehicle: Klucel (hydroxypropylcellulose) (HPC)
  T/C: 98 % of control
dose: 6.2 mg/kg/injection, schedule: Q03HX024 (ip), vehicle: Klucel (hydroxypropylcellulose) (HPC)
  T/C: 100 % of control
dose: 12.5 mg/kg/injection, schedule: Q03HX024 (ip), vehicle: Klucel (hydroxypropylcellulose) (HPC)
  T/C: 98 % of control
dose: 25.0 mg/kg/injection, schedule: Q03HX024 (ip), vehicle: Klucel (hydroxypropylcellulose) (HPC)
  T/C: 94 % of control
dose: 50.0 mg/kg/injection, schedule: Q03HX024 (ip), vehicle: Klucel (hydroxypropylcellulose) (HPC)
  T/C: 97 % of control
[7]
  T/C: 96 % of control
[4]
  T/C: 94 % of control
[15]
  T/C: 101 % of control and 109 % of control
dose: 100.0 mg/kg/injection, schedule: Q04DX003 (ip), vehicle: Klucel (hydroxypropylcellulose) (HPC)
  T/C: 101 % of control
dose: 119.0 mg/kg/injection, schedule: Q01DX001 (ip), vehicle: Klucel (hydroxypropylcellulose) (HPC)
  T/C: 98 % of control
dose: 178.0 mg/kg/injection, schedule: Q01DX001 (ip), vehicle: Klucel (hydroxypropylcellulose) (HPC)
  T/C: 98 % of control
[8]
  T/C: 93 % of control
[5]
  T/C: 106 % of control
[16]
  T/C: 93 % of control and 98 % of control
dose: 200.0 mg/kg/injection, schedule: Q04DX003 (ip), vehicle: Klucel (hydroxypropylcellulose) (HPC)
  T/C: 97 % of control
dose: 266.0 mg/kg/injection, schedule: Q01DX001 (ip), vehicle: Klucel (hydroxypropylcellulose) (HPC)
  T/C: 89 % of control
[9]
  T/C: 96 % of control
[6]
  T/C: 96 % of control
[17]
  T/C: 92 % of control
dose: 400.0 mg/kg/injection, schedule: Q04DX003 (ip), vehicle: Klucel (hydroxypropylcellulose) (HPC)
  T/C: 101 % of control
dose: 600.0 mg/kg/injection, schedule: Q01DX001 (ip), vehicle: Klucel (hydroxypropylcellulose) (HPC)
  T/C: 106 % of control

## CCC(=O)CC1CCCC(CC(=O)CC)N1 (stereo unspecified)
dose: 75.0 mg/kg/injection, schedule: Q01DX001 (ip), vehicle: saline
  T/C: 96 % of control
dose: 150.0 mg/kg/injection, schedule: Q01DX001 (ip), vehicle: saline
  T/C: 104 % of control
